Measured values published in patent US20030049284A1, “Method of increasing the solubility of alphahydrocarboxilic salts, and products obtained by the method” (priority 2001, published 2003).

What was measured:
[1] = Solubility in water (comparative data and examples); format: physicochemical; conditions: in 1 liter of water at 20-25° C.
[2] = water at 20° C.; literature value (index Merck Ref. 1675; F.C.C. IV Ed. Page 153); cited from earlier work

## O=C([O-])[C@H](O)[C@@H](O)[C@H](O)[C@H](O)CO.O=C([O-])[C@H](O)[C@@H](O)[C@H](O)[C@H](O)CO.[Fe+2] [Fe(II) gluconate]
[1]
  solubility, amount in 1 liter of water: 85-100 gr.
[2]
  solubility in water: 100 gr/1000 ml
